Reference: US4528397A, “Aminocarboxylic acid derivatives” (Sanraku-Ocean Co., Ltd., priority 1982, dated 1985)
One block for each molecule: values may come before it.

What was measured:
dipeptidase = molecular target: T1, dipeptidase (Rattus norvegicus, UniProt P31430); experiment: In vitro inhibition of partially purified rat kidney dipeptidase (spectrophotometric); format: biochemical; details: pH 8.0, 37° C., substrate of Table 1 (glycyldehydrophenylalanine or PS-5) not stated; for inhibition at 100 µM: inhibitor 10^-4 M
T1 construct: from tissue; host or cells: rat kidney, microsome fraction
Protocol: (1) Purification of dipeptidase
Rats were sacrificed by decapitation, and about 12 g of fresh kidneys were collected. A microsome fraction was obtained by the Hogboom's subcellular fractionating method used on differential centrifugation (Methods in Enzymology, Vol. 1, pages 16-19, Academic Press, New York, 1955). The microsome fraction was treated with 400 μg/ml of trypsin at 0° C. for 16 hours, and then supercentrifugally fractionated at 10^5 G for 60 minutes at 0° C.
The resulting precipitate was suspended in 20 ml of tris-HCl buffer (20 mM, pH 7.6) containing a detergent (0.4% Triton X-100), and then supercentrifugally fractionated at 10^5 G for 60 minutes at 0° C. The supernatant liquid was charged onto a column (15×100 mm) of Sephadex A-50 (Cl-form), and the column was eluted with tris-HCl buffer (20 mM, pH 7.0) containing a detergent (0.4% Triton X-100) with a sodium chloride concentration linear gradient from 0 to 0.5M.
The active fractions were concentrated with polyethylene glycol 4000, and then successively purified by a Sephadex G-150 (25×900 mm) column and a Sephadex G-200 (25×900 mm) column using the same tris-HCl buffer as above to obtain a partially purified sample of the dipeptidase.
(2) Measurement of inhibitory activity
Fifty microliters of the enzyme obtained as above was preincubated together with 30 μl of an inhibitor solution in a cuvette at 37° C. for 5 minutes. Then, 2.82 ml of a solution of glycyldehydrophenylalanine (5.3×10^-5 M) preincubated to 37° C. as a substrate in tris-HCl (0.1M, pH 8.0) was added, and the reaction was started. The reaction was carried out in a cuvette of a Hitachi spectrophotometer equipped with a constant temperature (37° C.) device, and by a recorder, a decrease in the absorbance of the reaction mixture at a wavelength of 275 nm during 5 minutes was measured.
The same experiment as above was carried out using a tris-HCl (pH 8.0) solution of antibiotic PS-5 (1.03 mM) as a substrate, and a decrease in the absorbance of the reaction mixture at a wavelength of 300 nm during 5 minutes was measured.
The percent inhibition and ID50 at a predetermined inhibitor concentration were determined from the measured values obtained as above and that obtained in a control in which no inhibitor was used.

[1] = Coadministration of AEG and antibiotic PS-5: urinary recovery of antibiotic PS-5; format: in vivo, mice (male, ddY); details: mouse, urine, sc, 2 mg, 0-3 hrs
Protocol: (§1) Coadministration of N-(2-aminoethyl)glycine and antibiiotic PS-5
To groups of 5 mice each (male, ddY, aged 5 weeks) was orally administered 0.25 ml (20 mg/mouse) of an aqueous solution of N-(2-aminoethyl)glycine (AEG) in a concentration of 80 mg/ml (the solutions had been adjusted to pH 7.5 with 1N HCl). The same volume of pure water was administered to a control group. Thirty minutes later, 0.25 ml of a solution of antibiotic PS-5 Na salt (8 mg/ml) in M/100 PBS (pH 7.0) was subcutaneously administered. Blood was taken from the retroorbital sinus at various time intervals using a heparinized capillary (a thermohematocrit capiratry tube, total length 75 mm, outside diameter 1.45-1.65 mm). One end of the tube was sealed with IATROSEAL® (Iatron Laboratries) and the plasma was separated by centrifugal separation (3000 rpm, 10 minutes). Blood sampling was carried out a total of six times at 0 time (immediately before administration of the antibiotic PS-5) and 5 minutes, 15 minutes, 30 minutes, 60 minutes and 90 minutes after the administration of the antibiotic PS-5. […]
On the other hand, the whole urine of the mice was taken 3 hours after the administration of the antibiotic PS-5, and the concentration of the antibiotic PS-5 in the collected whole urine was assayed by the same method as above. The mean concentrations for five mice was calculated.

[2] = Coadministration of AEG and antibiotic PS-5: plasma concentration of antibiotic PS-5; format: in vivo, mice (male, ddY); details: for concentration at 5 min / concentration at 0.25 h / concentration at 0.5 h: mouse, plasma, sc, 2 mg
Protocol: as §1
To groups of 5 mice each (male, ddY, aged 5 weeks) was orally administered 0.25 ml (20 mg/mouse) of an aqueous solution of N-(2-aminoethyl)glycine (AEG) in a concentration of 80 mg/ml (the solutions had been adjusted to pH 7.5 with 1N HCl). The same volume of pure water was administered to a control group. Thirty minutes later, 0.25 ml of a solution of antibiotic PS-5 Na salt (8 mg/ml) in M/100 PBS (pH 7.0) was subcutaneously administered. Blood was taken from the retroorbital sinus at various time intervals using a heparinized capillary (a thermohematocrit capiratry tube, total length 75 mm, outside diameter 1.45-1.65 mm). One end of the tube was sealed with IATROSEAL® (Iatron Laboratries) and the plasma was separated by centrifugal separation (3000 rpm, 10 minutes). Blood sampling was carried out a total of six times at 0 time (immediately before administration of the antibiotic PS-5) and 5 minutes, 15 minutes, 30 minutes, 60 minutes and 90 minutes after the administration of the antibiotic PS-5. The concentration of the antibiotic PS-5 in the plasma was disc-assayed against Comamonas terrigena B-996.

T1 sequence (P31430 17-410): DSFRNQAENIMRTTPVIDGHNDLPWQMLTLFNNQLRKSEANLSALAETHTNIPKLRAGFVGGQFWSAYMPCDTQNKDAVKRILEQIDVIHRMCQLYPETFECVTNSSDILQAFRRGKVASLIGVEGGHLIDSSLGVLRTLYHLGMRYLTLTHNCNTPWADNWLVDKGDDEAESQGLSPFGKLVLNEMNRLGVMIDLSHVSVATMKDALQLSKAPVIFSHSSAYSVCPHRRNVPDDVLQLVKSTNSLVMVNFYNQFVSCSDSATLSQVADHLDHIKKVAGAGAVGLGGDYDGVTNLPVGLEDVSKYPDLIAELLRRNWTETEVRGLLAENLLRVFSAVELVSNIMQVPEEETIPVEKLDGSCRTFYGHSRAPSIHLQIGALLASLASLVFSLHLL

inhibition at 100 µM (dipeptidase): 85%
IC50 (dipeptidase; read-out: ID50 (the source's name)): 22 µM
SMILES: N[C@H](CNCC(=O)O)Cc1ccccc1 [Compound 5, (S)-[N-(2-amino-2-benzyl)ethyl]glycine]

inhibition at 100 µM (dipeptidase): 42.4%
SMILES: C[C@H](N)CNCC(=O)O [Compound 6, (S)-N-(2-aminopropyl)glycine]

dose excreted at 3 h ([1]; AEG administered group (AEG 20 mg/mouse oral, PS-5 s.c.)): 13.2%
dose excreted at 3 h ([1]; Control group (water, PS-5 s.c.)): 0%
Concentration of antibiotic PS-5 in the plasma ([2]; AEG administered group (AEG 20 mg/mouse oral, 30 min before PS-5 s.c.), 0 min (immediately before PS-5)): 0 ng/mL
Concentration of antibiotic PS-5 in the plasma ([2]; AEG administered group, 60 min after PS-5 s.c.): 0 ng/mL
Concentration of antibiotic PS-5 in the plasma ([2]; AEG administered group, 90 min after PS-5 s.c.): 0 ng/mL
Concentration of antibiotic PS-5 in the plasma ([2]; Control group (water instead of AEG, then PS-5 s.c.), 0 min (immediately before PS-5)): 0 ng/mL
Concentration of antibiotic PS-5 in the plasma ([2]; Control group (water, PS-5 s.c.), 60 min): 0 ng/mL
Concentration of antibiotic PS-5 in the plasma ([2]; Control group (water, PS-5 s.c.), 90 min): 0 ng/mL
concentration at 5 min ([2]; AEG administered group, 5 min after PS-5 s.c.): 49600 ± 3700 ng/mL
concentration at 0.25 h ([2]; AEG administered group, 15 min after PS-5 s.c.): 21700 ± 2600 ng/mL
concentration at 0.5 h ([2]; AEG administered group, 30 min after PS-5 s.c.): 2300 ± 500 ng/mL
concentration at 5 min ([2]; Control group (water, PS-5 s.c.), 5 min): 52000 ± 4600 ng/mL
concentration at 0.25 h ([2]; Control group (water, PS-5 s.c.), 15 min): 15200 ± 1900 ng/mL
concentration at 0.5 h ([2]; Control group (water, PS-5 s.c.), 30 min): 1000 ± 100 ng/mL
SMILES: CC[C@H]1C(=O)N2C(C(=O)O)=C(SCCNC(C)=O)C[C@H]12 [antibiotic PS-5]

The remaining lines, values behind:

SMILES: NCCNCC(=O)O [Compound 1, N-(2-aminoethyl)glycine]
inhibition at 100 µM (dipeptidase): 86%

SMILES: NCCSCC(=O)O [Compound 2, (2-aminoethyl)thioacetic acid]
inhibition at 100 µM (dipeptidase): 2%

SMILES: C[C@H](NCCN)C(=O)O [Compound 3, N-(2-aminoethyl)-L-alanine]
inhibition at 100 µM (dipeptidase): 15.6%

SMILES: NCCN[C@@H](Cc1ccccc1)C(=O)O [Compound 4, N-(2-aminoethyl)-L-phenylalanine]
inhibition at 100 µM (dipeptidase): 38%
